Measurements as given in patent US8133294B2, “Buffered amino alcohol solutions of N-(n-butyl)thiophosphoric triamide (NBPT) and urea fertilizers using such solutions as urease inhibitors” (Whitehurst Associates, Inc., priority 2009, dated 2012).
“Also recorded” adds a separate entry of the source.

Columns and labels:
[1] = Sulfide test: NBPT containing buffered mixture added to copper (II) containing ARBORITE Binder 75, colour change; type: physicochemical
Method: As another example of the instability of this formulation, the buffered NBPT containing mixture was added to ARBORITRE® Binder 75 which is an ethanolamine borate containing copper (II) ions at about 0.75%.
[…]; The NBPT containing buffered mixture was then added to ARBORITE® Binder 75.

[2] = background description; cited from earlier work
[3] = Solubility limit of NBPT in buffered amino alcohol/carboxylic acid mixture; type: physicochemical; conditions: 12% NBPT in MEA/acetic acid buffered mixture, pH 9.2 (Example 3)
[4] = Stability of NBPT in the buffered mixture on standing (yellowing, hydrogen sulfide odor as signs of decomposition); type: physicochemical

## CCCCNP(N)(N)=S [NBPT, N-(n-butyl)-thiophosphoric triamide]
[1]; 20% NBPT in TEA/acetic acid buffered mixture, pH 7.6 (Example 6)
  Colour change on addition to ARBORITE Binder 75 (sulfides of copper (II)): lost its characteristic blue color and appeared green
[1]; 25% NBPT in MIPA/acetic acid buffered mixture, pH 9.0 (Example 13)
  Colour change on addition to ARBORITE Binder 75 (sulfides of copper (II)): No reaction characteristic of the formation of sulfide salts of copper (II) was observed
[1]; NBPT in MEA/acetic acid buffered mixture, pH 7.0 (Example 1)
  Colour change on addition to ARBORITE Binder 75 (sulfides of copper (II)): immediately turned brown
[2]
  Hydrolytic and thermal stability: undergoes hydrolysis and is thermally unstable
[3]
  Crystallization of the NBPT solution when chilled: slight crystallization when chilled
[4]; 12% NBPT in MEA/acetic acid buffered mixture, pH 9.2 (Example 3)
  Decomposition of NBPT in the buffered mixture over time: no signs of yellowing were observed
[4]; MEA/acetic acid buffered mixture, pH 7.0 (Examples 1 and 2)
  Decomposition of NBPT in the buffered mixture over time: turned yellow over time and emitted an odor of hydrogen sulfide; also recorded: caused hydrolysis of the NBPT and released sulfides
[4]; TEA/acetic acid buffered mixture, pH 7.6 (Example 6)
  Decomposition of NBPT in the buffered mixture over time: displayed a tendency to yellow over time
